Measured values from patent publication US11234982B2, “Methods for treating ocular surface pain” (NOVARTIS AG, priority 2019, dated 2022).

Assays:
Assay type in all cases: in vivo, human
healthy volunteers = assay: Hand immersion test at 49° C. during MAD part; conditions: water at 49° C.
Protocol: Safety assessments: Safety assessments consisted of collecting all adverse events (AEs), serious adverse events (SAEs), including systemic and ocular adverse events, along with their severity and relationship to study drug. Systemic safety assessments included regular monitoring of hematology, blood chemistry and urinalysis performed at study center and regular assessments of physical examination, vital signs (systolic and diastolic blood pressure, pulse rate, and body temperature), ECG, pregnancy and assessments of fertility and hand immersion test at 49° C. during MAD part. Ocular safety assessments included early treatment diabetic retinopathy study (ETDRS) visual acuity, intraocular pressure, slit-lamp biomicroscopy, corneal staining and dilated fundus exam.
For the hand immersion test, all subjects in the treatment cohorts withdrew their hand from water at 49° C. at a time interval between 0 to ≤50 secs.

[1] = test system: postoperative ocular pain in patients undergoing photorefractive keratectomy (PRK) surgery; assay: PRK study: visual analog scale (VAS) pain assessment
Protocol: The study was a proof of concept, double-masked, randomized, vehicle-controlled study of compound I administered as eye drops in addition to standard of care treatment in patients after PRK surgery. PRK surgery was performed as an outpatient procedure under topical anesthesia with removal of the corneal epithelium to expose the stroma for the laser ablation. Compound I dosing was as single eye drop of 2.5% (25 mg/ml, 0.925 mg/drop), administered four times daily (every six hours) in one eye from immediate post-op (time 0) to last dose at 72 hours.
The study consisted of 2 treatment periods using a crossover design. Patients underwent PRK surgery on 2 separate occasions (periods), one eye at a time. Patients were randomized to receive either compound 1 or vehicle following procedure 1 and the alternate following procedure 2.
Forty patients were randomized in a 1:1 ratio to two sequences: compound I during period 1, followed by vehicle in period 2, or vehicle during period 1 followed by compound I during period 2. Each patient was administered one drop four times daily for 72 hours following PRK surgery on their study eye (Day 1, Periods 1 and 2). The initial study eye was the non-dominant eye as established at screening and in agreement of the patient and the investigator. The patients returned for follow-up visits on Days 2, 3, 4 and 8 of Period 1 after surgery in the first eye, with optional daily visits to follow the patient until wound healing was complete. The second eye surgery was not performed if any complications were noticed.
Patient subjective experience of pain was recorded using VAS, a numeric assessment of pain between 0 and 100, with 0 representing no pain, and 100 representing worst imaginable pain. […] Since it was important clinically to both decrease the maximum pain as well as the overall pain that the patient experiences during the immediate postoperative period, the two periods of 6 hours and up to 12 hours postoperatively, were evaluated as primary endpoints. All evaluable VAS data was collected using an ePRO, which was an electronic device (cell phone with software application), on which patients marked their pain levels at the appropriate time points.
Rescue oral analgesics: It is not ethical to refuse pain control medication to patients postoperatively as part of a clinical trial. […] Because the use of oral rescue medication may be a potential confounder of the pain VAS evaluation, three approaches were used when analyzing pain VAS scores to account for the influence of pain meds (assuming 4 hours of rescue medication effect): (1) any recorded VAS score within 4 hours after use of rescue medication was considered missing; (2) all the recorded VAS scores was used; and (3) any recorded VAS scores within 4 hours after rescue medication use was imputed by the record taken prior to the rescue medication.

[2] = PRK study: residual compound I in bandage contact lens (BCL)
Protocol: Compound I was quantified in plasma using a validated LC-MS/MS method; the lower limit of quantification (LLOQ) was 0.05 ng/mL. Concentrations were expressed in ng per mL units. When feasible, bandage contact lenses (BCL) exposed to study drug were collected and analyzed for residual drug exposure after treatment (LLOQ: 5.00 ng/mL in 0.55 mL of extraction fluid, or 2.75 ng/BCL). Concentrations below the LLOQ were reported as “zero” and missing data were labeled as such.
Bandage Contact Lens (BCL) was collected from 40 patients on Day 4 of the dose administration and analyzed for compound I. Values from the three IMP non-compliant patients were excluded from BCL summary statistics, leaving 37 values evaluable, including one value from a patient without available plasma PK. The mean concentration of compound I (CV %) in 0.55 mL extraction fluid was 8500 ng/mL (73.1%), with a wide range of 284 to 22600 ng/mL. These concentrations translate to an estimated mean of 4680 ng/lens (0.55 mL×8500 ng/mL), and a range of 156 to 12400 ng/lens. The amount in BCL was very small in relation to the 0.925 mg dose of compound I administered: mean 0.51%, and range of 0.017% to 1.3% of dose.

[3] = 2.5% four times daily after PRK
[4] = 2.5% four times daily after PRK, VAS 0-100
[5] = 2.5% four times daily after PRK, VAS 0-100, ORM-adjusted, N = 30

CC(C)c1nc2cc(O)ccc2c(=O)n1-c1ccc(C#N)cc1 [Compound I, 4-(7-hydroxy-2-isopropyl-4-oxo-4H-quinazolin-3-yl)-benzonitrile]
Change in hand immersion time, compound I vs vehicle (healthy volunteers; MAD part): no meaningful change in immersion time
Temperature sensitivity of the subjects (healthy volunteers; MAD part): does not alter temperature sensitivity
Longest hand immersion time of any subject (healthy volunteers; all subjects in the treatment cohorts): ≤ 22 s
VAS 0-12 hours post-operatively: % Diff compound I vs. Vehicle [1, 3]: −22%
VAS at 6 hours post-operatively: % Diff compound I vs. Vehicle [1, 3]: −25%
VAS 0-12 hours post-operatively: Diff (compound I-Vehicle) of model based means [1, 4]: −8.56
VAS at 6 hours post-operatively: Diff (compound I-Vehicle) of model based means [1, 4]: −11.1
Model estimated mean VAS pain severity score 0-12 hours post-operatively [1, 5]: 30.90
Model estimated mean VAS pain severity score at 6-hours post-operatively [1, 5]: 34.63
Mean change in VAS score one-half hour after instillation of eye drop ([1]; 6.5 hours vs 6 hours post-operative): −3.1
Mean change in VAS score one-half hour after instillation of eye drop ([1]; 18.5 hours vs 18 hours post-operative): 2.8
Mean change in VAS score one-half hour after instillation of eye drop ([1]; 24.5 hours vs 24 hours post-operative): 1.3
VAS pain severity scores vs Vehicle up to 36 hours after surgery ([1]; all scheduled time points): lower for compound I than Vehicle at all scheduled time points up to and including 36 hours after surgery
Difference between compound I and Vehicle VAS scores from 36 to 72 hours after PRK surgery ([1]; no statistically significant difference at p 0.10): only marginally different
VAS pain severity scores vs Vehicle during the first 18 hours after surgery ([1]; p-value threshold 0.10, 6 out of the 7 time points, starting with hour 1): statistically significantly lower VAS pain severity scores
Range of concentration of compound I in BCL extraction fluid ([2]; 0.55 mL extraction fluid, Day 4): 284 to 22600 ng/mL
Mean concentration of compound I in BCL extraction fluid ([2]; 0.55 mL extraction fluid, Day 4, 37 values): 8500 ng/mL
Estimated mean amount of compound I per lens ([2]; 0.55 mL×8500 ng/mL): 4680 ng/lens
Amount in BCL in relation to the 0.925 mg dose, mean ([2]; Day 4): 0.51 % of dose
Amount in BCL in relation to the 0.925 mg dose, range ([2]; Day 4): 0.017 % of dose
Range of amount of compound I per lens ([2]; Day 4): 156 to 12400 ng/lens
